Test results from publication PMC11087268, “A folate inhibitor exploits metabolic differences in Pseudomonas aeruginosa for narrow-spectrum targeting” (Nature Microbiology, 2024).
Converted amounts (≈) assume the structure as drawn. “And” between values parts separate entries of the source, which are not always exact repeats. Equal values may be shown once.

Columns and labels:
[1] = system: P. aeruginosa PA14; experiment: Growth of P. aeruginosa PA14 in TMI-supplemented media with fluorofolin; type: cell-based, Pseudomonas aeruginosa; settings: for OD600 of P. Aeruginosa PA14: Fluorofolin
[2] = target: T1, human DHFR (Homo sapiens, UniProt P00374); experiment: Human DHFR in vitro assay; type: biochemical; settings: for Normalized activity to no drug control: human DHFR
T1 construct: purchased R&D Systems 8456-DR
T1 sequence (P00374 1-187): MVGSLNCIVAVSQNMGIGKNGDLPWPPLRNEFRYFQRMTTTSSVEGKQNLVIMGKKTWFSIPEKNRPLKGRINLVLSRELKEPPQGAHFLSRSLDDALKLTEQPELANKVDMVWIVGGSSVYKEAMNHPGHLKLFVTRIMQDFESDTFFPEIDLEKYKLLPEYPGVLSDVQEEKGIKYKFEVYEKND

[3] = system: Acinetobacter baumannii ATCC 17978; experiment: MIC (WuXi, Mueller–Hinton broth) against A. baumannii ATCC 17978; type: cell-based; settings: ATCC17978, performed by WuXi
Procedure: Bacterial colonies (4–8) of strains of interest were vortexed in saline and adjusted to an OD600 of 0.2. Strains were diluted 1:200 into CAMHB media in 96-well plates. Antibiotics were serially diluted 1:3 in DMSO, and 1 μl of each dilution was added to bacteria. The plates were incubated for 18–20 h at 37 °C before observation.

[4] = system: Klebsiella pneumoniae ATCC 438165; experiment: MIC against K. pneumoniae in LB broth; type: cell-based; settings: ATCC438165, 16 h, 37 °C, OD600
Procedure: (§1) Overnight cultures were diluted 1:150 in LB broth and added to a 96-well plate. Antibiotics were serially diluted 1:2 and added to columns of the 96-well plate and grown at 37 °C with continuous shaking. Cell growth was measured using optical density at 600 nm (OD600). MIC assays were performed in either BioTek Synergy HT or Tecan InfiniteM200 Pro microplate readers.

[5] = system: Pseudomonas aeruginosa PA01; experiment: MIC against P. aeruginosa PA01 in LB broth; type: cell-based; settings: 16 h, 37 °C, OD600
Procedure: as §1

In the case of `Nc1nc(N)c2c(ccc3c2ccn3Cc2ccnc(F)c2)n1` [fluorofolin], the “OD600 of P. Aeruginosa PA14” value ([1]; Time 117.445 min) is reported as 0.0073, the “OD600 of P. Aeruginosa PA14” value ([1]; Time 128.123 min) is reported as 0.0085 and the “OD600 of P. Aeruginosa PA14” value ([1]; Time 138.8 min) is reported as 0.00865. For the same compound, the “OD600 of P. Aeruginosa PA14” value ([1]; Time 149.477 min) was 0.0096, the “OD600 of P. Aeruginosa PA14” value ([1]; Time 160.153 min) was 0.01045 and the “OD600 of P. Aeruginosa PA14” value ([1]; Time 170.83 min) was 0.01095. The “OD600 of P. Aeruginosa PA14” value ([1]; Time 181.507 min) was 0.01175, the “OD600 of P. Aeruginosa PA14” value ([1]; Time 192.183 min) was 0.0127 and the “OD600 of P. Aeruginosa PA14” value ([1]; Time 202.86 min) was 0.0136. For the same compound, the “OD600 of P. Aeruginosa PA14” value ([1]; Time 213.537 min) was 0.01395, the “OD600 of P. Aeruginosa PA14” value ([1]; Time 224.213 min) was 0.01515 and the “OD600 of P. Aeruginosa PA14” value ([1]; Time 234.89 min) was 0.01575. For the same compound, the “OD600 of P. Aeruginosa PA14” value ([1]; Time 245.567 min) was 0.0166, the “OD600 of P. Aeruginosa PA14” value ([1]; Time 256.243 min) was 0.0165 and the “OD600 of P. Aeruginosa PA14” value ([1]; Time 266.922 min) was 0.01705. For the same compound, the “OD600 of P. Aeruginosa PA14” value ([1]; Time 277.598 min) was 0.01815, the “OD600 of P. Aeruginosa PA14” value ([1]; Time 288.275 min) was 0.01805 and the “OD600 of P. Aeruginosa PA14” value ([1]; Time 298.952 min) was 0.0199. The “OD600 of P. Aeruginosa PA14” value ([1]; Time 309.628 min) was 0.0191, the “OD600 of P. Aeruginosa PA14” value ([1]; Time 320.305 min) was 0.0205 and the “OD600 of P. Aeruginosa PA14” value ([1]; Time 330.982 min) was 0.01975. The “OD600 of P. Aeruginosa PA14” value ([1]; Time 341.658 min) was 0.0208, the “OD600 of P. Aeruginosa PA14” value ([1]; Time 352.335 min) was 0.0206 and the “OD600 of P. Aeruginosa PA14” value ([1]; Time 363.012 min) was 0.02055. For the same compound, the “OD600 of P. Aeruginosa PA14” value ([1]; Time 373.688 min) was 0.0208, the “OD600 of P. Aeruginosa PA14” value ([1]; Time 384.365 min) was 0.02105 and the “OD600 of P. Aeruginosa PA14” value ([1]; Time 395.042 min) was 0.02085. The “OD600 of P. Aeruginosa PA14” value ([1]; Time 405.718 min) was 0.02185, the “OD600 of P. Aeruginosa PA14” value ([1]; Time 416.395 min) was 0.02155 and the “OD600 of P. Aeruginosa PA14” value ([1]; Time 427.072 min) was 0.02275. For the same compound, the “OD600 of P. Aeruginosa PA14” value ([1]; Time 437.748 min) was 0.02165, the “OD600 of P. Aeruginosa PA14” value ([1]; Time 448.425 min) was 0.0225 and the “OD600 of P. Aeruginosa PA14” value ([1]; Time 459.102 min) was 0.0221. The “OD600 of P. Aeruginosa PA14” value ([1]; Time 469.78 min) was 0.0226, the “OD600 of P. Aeruginosa PA14” value ([1]; Time 480.457 min) was 0.02355 and the “OD600 of P. Aeruginosa PA14” value ([1]; Time 491.133 min) was 0.02265. The “OD600 of P. Aeruginosa PA14” value ([1]; Time 501.81 min) was 0.02275, the “OD600 of P. Aeruginosa PA14” value ([1]; Time 512.487 min) was 0.023 and the “OD600 of P. Aeruginosa PA14” value ([1]; Time 523.163 min) was 0.02375. The “OD600 of P. Aeruginosa PA14” value ([1]; Time 533.84 min) was 0.02255, the “OD600 of P. Aeruginosa PA14” value ([1]; Time 544.517 min) was 0.02295 and the “OD600 of P. Aeruginosa PA14” value ([1]; Time 555.193 min) was 0.0233. The “OD600 of P. Aeruginosa PA14” value ([1]; Time 565.87 min) was 0.02345, the “OD600 of P. Aeruginosa PA14” value ([1]; Time 576.547 min) was 0.0235 and the “rescue of growth inhibition by TMI supplementation” value ([1]; P. aeruginosa PA14, 0.3 mM TMI, fluorofolin 2× MIC) was “unable to rescue”. The “Normalized activity to no drug control” value ([2]; Fluorofolin 0.12207 nM) was 1.039, the “Normalized activity to no drug control” value ([2]; Fluorofolin 0.488281 nM) was 1.039 and the “Normalized activity to no drug control” value ([2]; Fluorofolin 1.95312 nM, replicates _1, _2) was 0.9215 and 1.02. For the same compound, the “Normalized activity to no drug control” value ([2]; Fluorofolin 7.8125 nM, replicates _1, _2) was 0.5724 and 0.64, the “Normalized activity to no drug control” value ([2]; Fluorofolin 31.25 nM, replicates _1, _2) was 0.387 and 0.4828 and the “Normalized activity to no drug control” value ([2]; Fluorofolin 125 nM, replicates _1, _2) was 0.2567 and 0.2221. For the same compound, the “Normalized activity to no drug control” value ([2]; Fluorofolin 500 nM, replicates _1, _2) was 0.1373 and 0.1034, the “Normalized activity to no drug control” value ([2]; Fluorofolin 2000 nM, replicates _1, _2) was 0.03994 and 0.01531 and the IC50 ([2]; purified human DHFR) was 14 ± 4 nM. For the same compound, the MIC [3] was 0.8 µg/mL (≈ 2.59 µM), the MIC [4] was 6.25 µg/mL and the MIC [5] was 6.25 µg/mL.
